# In US9212387B2, “Method for detection of genes targeted by microRNA” (National University Corporation Okayama University, priority 2010, dated 2015):
# {Biotin} = biotin label; {P} = phosphate
# Legend:
# [1] = test system: target candidate genes of let-7b (mRNA in cell extract); assay: Pull down of target gene mRNAs of let-7b with biotinylated miRNA, RT-PCR assay; assay type: binding, human; settings: wash 400 mM KCl; for E2F2, TUSC2 and SRSF8 in pulled down mRNA: Example 9; for E2F6 and SOCS4 in pulled down mRNA: Example 8
# Source text: In this example, in the detection method for target genes of miRNA of Example 1, target genes were detected through the use of let-7b as biotinylated miRNA. In accordance with the biotinylated miRNA of 1) of Example 1, biotinylated let-7b in which the sense strand had its 5′ end and 3′ end modified by phosphorylation and biotin, respectively, and the guide strand had only its 5′ end modified by phosphorylation and biotinylated miR-183 as a negative control were synthesized (FASMAC Co., Ltd.). A pull-down complex was obtained by the same technique as in Example 1 through the use of streptavidin beads (Streptavidin Mutein Matrix: Roche), and washed five times with a wash solution containing 400 mM KCl in the same manner as in Example 5. After that, RNA purification and cDNA synthesis were performed from the complex binding to the beads. The resulting cDNA was subjected to an RT-PCR assay with primers specific for the E2F6 and SOCS4-2 genes as target candidate genes of let-7b.
# In this example, in the detection method for target genes of miRNA of Example 1, target genes were detected through the use of let-7b as biotinylated miRNA. In this example, the detection was performed by the same technique as in Example 8 except that biotinylated miR-29a was used as a negative control in place of biotinylated miR-183. Also in the case of the biotinylated miR-29a, one in which the sense strand had its 5′ end and 3′ end modified by phosphorylation and biotin, respectively, and the antisense strand had only its 5′ end modified by phosphorylation was produced (FASMAC Co., Ltd.). An RT-PCR assay was performed with primers specific for the PRDM2, E2F2, TUSC2, and SRSF8 genes as target candidate genes let-7b.
# [2] = test system: target gene mRNAs of miR-183 in HEK293 cell extract; assay: Pull down of target gene mRNAs of miR-183 with biotinylated miRNA from cell extract, RT-PCR assay; assay type: binding, human; settings: for target candidate genes of miR-183 (10 kinds) in pull-down complex: VIL2, PPP2CA, RREB1, BCL2L11, PDCD4, LATS2, RSU1, ING3, DNMT3A, BRMS1L, wash 400 mM KCl; for candidate genes whose mRNA was pulled down / RT-PCR bands: 14 kinds of target candidate genes of miR-183, HEK293 cell extract, streptavidin agarose beads
# AGO2 protein = biological target: T1, AGO2 protein (Homo sapiens, UniProt Q9UKV8); assay: AGO2 protein in pull-down complex, Western blot; assay type: binding; settings: HEK293 cell extract; streptavidin agarose beads 1 hour
# T1 construct: endogenous in cells; host or cells: HEK293 cell extract
# Procedure: Biotinylated miR-183 was produced by the same technique as that for the biotinylated miRNA of 1-1) of Example 1, and a cell extract of HEK293 cells was produced by the same technique as that for the cell extract of 1-2) of Example 1. Five tubes in each of which biotinylated double-stranded miR-183 ([…]) was added to 500 μl of the cell extract were produced, and were each subjected to a reaction at 4° C. for 30 minutes, and then at 30° C. for 60 minutes to provide a solution containing a biotinylated miRNA-target gene mRNA complex. To the solution containing the complex were added streptavidin agarose beads (Streptavidin Mutein Matrix, No. 03 708 152 001: Roche), and each tube was treated at 4° C. for 0 minutes, 2 minutes, 12 minutes, 24 minutes, or 1 hour. […]
# The presence or absence of the AGO2 protein in the pull-down complex of Example 2 was confirmed. […] By the same technique as in Experimental Example 1-2, the sample was electrophoresed with 8% SDS-polyacrylamide gel, proteins were then blotted onto a PVDF membrane and subjected to a reaction through the use of an anti-AGO2 antibody (Anti Human AGO2 monoclonal antibody; Wako Pure Chemical Industries, Ltd., No. 016-20861), an anti-mouse antibody, and a Vecstatin ABC-AP kit (Vector Laboratories), and a fluorescence image was acquired with an image analyzer (LAS-1000; FUJIFILM). […]
# [3] = test system: target candidate genes of miR-19a (mRNA in cell extract); assay: Pull down of target gene mRNAs of miR-19a with biotinylated miRNA, RT-PCR assay; assay type: binding, human
# Source text: In this example, in the detection method for target genes of miRNA of Example 1, target genes were detected through the use of miR-19a as biotinylated miRNA. In accordance with the biotinylated miRNA of 1-1) of Example 1, biotinylated miR-19a in which the sense strand had its 5′ end and 3′ end modified by phosphorylation and biotin, respectively, and the antisense strand had only its 5′ end modified by phosphorylation was were synthesized (FASMAC Co., Ltd.). The synthesized biotinylated miR-19a (400 pmole) and biotin (B4501: Sigma, […]) as a negative control were subjected to the treatments of 1-2) and 1-3) of Example 1. A pull-down complex was obtained from the resulting complex by the same technique as in 1-4) through the use of streptavidin beads (Streptavidin Mutein Matrix: Roche), and washed five times with a wash solution containing 400 mM KCl in the same manner as in Example 5. After that, the precipitate was treated with a 5 mM biotin solution (containing 5 mM biotin and an RNase inhibitor in the wash solution containing 400 mM KCl) at 42° C. for 5 minutes, and centrifuged in the same manner, and the pull-down complex (biotinylated miR-19a) was liberated from the streptavidin beads. […]
# In this example, target genes were detected through the use of miR-19a as biotinylated miRNA in the detection method for target genes of miRNA of Example 1. […]
# T1 sequence (Q9UKV8 whole entry): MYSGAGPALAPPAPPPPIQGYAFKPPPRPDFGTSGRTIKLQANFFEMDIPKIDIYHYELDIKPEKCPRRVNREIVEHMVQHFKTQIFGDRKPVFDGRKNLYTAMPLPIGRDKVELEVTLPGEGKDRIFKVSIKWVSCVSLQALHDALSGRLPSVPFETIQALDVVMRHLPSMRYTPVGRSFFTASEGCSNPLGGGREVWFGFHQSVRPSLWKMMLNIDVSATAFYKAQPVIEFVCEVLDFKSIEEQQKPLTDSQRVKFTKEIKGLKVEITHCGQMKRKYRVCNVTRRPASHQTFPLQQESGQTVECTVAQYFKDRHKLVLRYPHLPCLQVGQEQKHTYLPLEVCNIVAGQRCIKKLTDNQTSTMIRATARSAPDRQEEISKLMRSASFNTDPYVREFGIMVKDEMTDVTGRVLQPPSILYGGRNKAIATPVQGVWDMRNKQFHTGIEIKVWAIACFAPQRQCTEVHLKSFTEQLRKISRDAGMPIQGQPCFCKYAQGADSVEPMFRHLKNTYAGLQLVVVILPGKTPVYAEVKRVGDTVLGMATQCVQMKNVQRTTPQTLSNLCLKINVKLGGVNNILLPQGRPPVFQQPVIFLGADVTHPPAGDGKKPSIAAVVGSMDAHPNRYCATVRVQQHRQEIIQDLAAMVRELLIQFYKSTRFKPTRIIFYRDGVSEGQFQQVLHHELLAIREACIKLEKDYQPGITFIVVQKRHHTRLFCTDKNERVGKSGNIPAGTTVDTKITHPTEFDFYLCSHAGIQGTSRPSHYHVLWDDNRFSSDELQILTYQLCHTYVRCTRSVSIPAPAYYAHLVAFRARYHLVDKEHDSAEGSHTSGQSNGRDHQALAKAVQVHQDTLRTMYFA
Substance,"E2F2, TUSC2 and SRSF8 in pulled down mRNA [1]",target candidate genes of miR-183 (10 kinds) in pull-down complex [2],candidate genes whose mRNA was pulled down / RT-PCR bands [2],E2F6 and SOCS4 in pulled down mRNA [1],also measured
"biotinylated miR-29a: Sense SEQ ID NO: 5, 5′-phosphorylated, 3′-biotinylated; antisense SEQ ID NO: 6; negative control (sense UAGCACCAUCUGAAAUCGGUUA; antisense ACCGAUUUCAGAUGGUGCCAAG; sense: RNA, 5' {P}, 3' {Biotin}, backbone not given here; antisense: RNA, 5' {P}, backbone not given here)",not contained,–,–,–,–
"natural type miRNA: Original mature miRNA type: sense SEQ ID NO: 1, antisense SEQ ID NO: 9 (sense UAUGGCACUGGUAGAAUUCACU; antisense GUGAAUUACCGAAGGGCCAUAA; sense: RNA, 5' {P}, 3' {Biotin}, backbone not given here; antisense: RNA, 5' {P}, backbone not given here)",–,contained,–,–,–
"biotinylated miR-183: Sense SEQ ID NO: 1, 5′-phosphorylated, 3′-biotinylated; antisense SEQ ID NO: 2 with a 1-base mismatch (sense UAUGGCACUGGUAGAAUUCACU; antisense UGAAUUCUACCAGUGCCACAAG; sense: RNA, 5' {P}, 3' {Biotin}, backbone not given here; antisense: RNA, 5' {P}, backbone not given here)",–,contained,7,not contained,AGO2 protein (about 95 kDa) in pull-down complex (AGO2 protein): detected
"biotinylated let-7b: Sense SEQ ID NO: 3, 5′-phosphorylated, 3′-biotinylated; antisense SEQ ID NO: 4",contained,–,no band for any of the genes was detected,contained,–
"biotinylated miR-19a: Sense SEQ ID NO: 7, 5′-phosphorylated, 3′-biotinylated; antisense SEQ ID NO: 8 (sense UGUGCAAAUCUAUGCAAAACUGA; antisense AGUUUUGCAUAGAUUUGCAUAAG; sense: RNA, 5' {P}, 3' {Biotin}, backbone not given here; antisense: RNA, 5' {P}, backbone not given here)",–,–,–,–,"target candidate genes (9 genes) of miR-19a in pulled down mRNA ([3]; JAZF1, TNF, SMAD4, HIP1, HIC1, LRP12, TNFRSF12A, TUSC2, SIVA1, Example 11): contained; target candidate genes (7 kinds) of miR-19a in 5 mM biotin extract or on remaining beads ([3]; SOX4, INHBB, TP531NP1, PTP4A1, TNFAIP3, HIC1, CNKSR2, Example 10): present"
